Earlier results in US10638990B2, “Sunscreen compositions with improved water resistance of UVA sunscreen active agents” (Edgewell Personal Care Brands, LLC, priority 2015, dated 2020).

Conditions: calculated partition coefficient between octanol and water

First: CCOCCOC(=O)/C=C/c1ccc(OC)cc1 [Cinoxate, Ethoxyethyl methoxy cinnamate]
Second: CCOC(=O)c1ccc(N(CC(C)O)CC(C)O)cc1 (stereo not drawn) [Ethyl dihydroxypropyl PABA, Ethyl-4-bis(2-hydroxypropyl-aminobenzoate)]
The “Log P @25° C.” value of the first is lower: 2.55 for the first, 2.84 for the second.

In the case of `CC1CCC(C(C)C)C(OC(=O)c2ccccc2N)C1` (stereo not drawn) [Menthyl anthranilate, Menthyl-O-aminobenzoate], the “Log P @25° C.” value is listed as 5.05.
